Reference: patent US8686016B2, “Schweinfurthins and uses thereof” (The United States of America, as represented by the …, priority 2009, dated 2014)

Assays:
[1] = tested on: MPNST K14553 cells; test: XTT cell proliferation assay, K14553; type: cell-based, mouse
Description: (§1) Establishment of NPcis MPNST cell lines: Mice were euthanized by CO2 asphyxiation and tumors were dissected. The tumor volume was measured. The tumor was then cut in half, and ½ fixed in 4% PFA. The other half was rinsed, then cut into 24 pieces of approximately equal size. Each piece was diced with a razor blade and placed in 1 well of a 24 well plate, along with 625 μL of Triple Express (Gibco, Grand Island, N.Y., USA) and 5 μL of recombinant DNAse (Roche, Indianapolis, Ind., USA). Tumors were triturated, then incubated at 37° C. in a 5% CO2 incubator for 2-5 hours, with an additional trituration halfway through incubation time. At the end of the incubation, tumor pieces were triturated again, and suspended cells were transferred to 1.5 mL eppendorf tubes. […] Both plates were monitored for cell growth, grown up to 10 cm plates, and frozen down in 10% DMSO. […]
(§2) XTT Cell Proliferation Assay: Cells were seeded into 96-well plates at a density of 2,000 cells/well and allowed to reattach overnight. Cells were treated with SA, synthetic analogs, camptothecin (NCI Chemotherapeutics Repository, Md., USA), or DMSO control at the indicated concentrations continuously for 48 hours followed by assay in the 96-well plate for relative viable cell number using the dye […] (XTT) and a Wallac-Victor 2 plate reader (Perkin-Elmer, Waltham, Mass., USA). […]

[2] = tested on: MPNST T265 cells; test: XTT cell proliferation assay, T265; type: cell-based, human
Description: (§3) XTT Cell Proliferation Assay: Cells were seeded into 96-well plates at a density of 2,000 cells/well and allowed to reattach overnight. Cells were treated with SA, synthetic analogs, camptothecin (NCI Chemotherapeutics Repository, Md., USA), or DMSO control at the indicated concentrations continuously for 48 hours followed by assay in the 96-well plate for relative viable cell number using the dye […] (XTT) and a Wallac-Victor 2 plate reader (Perkin-Elmer, Waltham, Mass., USA). Absorbance was determined at 450 nm with 650 nm as a reference reading. Primary astrocytes were additionally assayed at a 96 hour time point.
Cell lines and culture: Human MPNST cell lines (STS26T and T265) were obtained from the Pediatric Oncology Branch, NCI (Bethesda, Md., USA).

[3] = tested on: NCI 60-cell line panel; test: NCI 60 cell line assay; type: cell-based, human
[4] = Chemical stability; type: physicochemical; settings: compared with the free resorcinols
[5] = tested on: MPNST K16561 cells; test: XTT cell proliferation assay, K16561; type: cell-based, mouse
Description: as §1, §2

[6] = tested on: KR158 cells stably transfected with GFP-actin; test: Cell morphology / actin confocal microscopy, KR158 GFP-actin; type: cell-based, mouse; settings: 16-18 hrs treatment
Description: Doxorubicin studies: KR158 stably transfected with GFP-actin were treated with 25 and 50 μM doxorubicin for 18 hrs continuously.
Cell Morphology Assays and Confocal Microscopy: To assay cytoskeleton morphology, KR158 cells, mouse primary astrocytes, KR158 clones expressing the NF1-GRD constructs, K14553 cells, and A549 were seeded to cover slips and allowed to reattach overnight. Cells were treated for 18 hours with either the indicated concentrations of SA, or the vehicle control DMSO. The cover slips were fixed in 3.7% paraformaldehyde, permeablized in 0.1% Triton-X100, and stained with Alexa Fluor 488-phalloidin (Invitrogen, Carlsbad, Calif., USA) to detect actin and cells were mounted in Prolong Antifade containing DAPI (Invitrogen) to stain nuclei. The cells were imaged on a LSM510 confocal microscope (Carl Zeiss Inc., Jena, Germany). […] KR158 GFP-actin transfected cells were seeded to 8-well chamber slides, allowed to reattach, and then treated with indicated concentrations of SA. Actin structures were monitored continuously over a 16 hr period using confocal microscopy equipped with a growth chamber (37° C., humidified atmosphere and 5% CO2). To compare SA to Rho/Rock inhibitors, KR158 GFP-actin cells were treated with SA or with the Rho pathway inhibitors Rock inhibitor Y-27632 (Sigma, St. Louis, Mo., USA), and the Rho inhibitor C3 transferase (Cytoskeleton, Inc., Denver, Colo., USA, cat# CT04) for 16 hrs, and then examined by confocal microscopy.

[7] = tested on: A549 cells; test: XTT cell proliferation assay, A549; type: cell-based, human; settings: 48 hours
Description: as §3

With CC(C)=CCC/C(C)=C/Cc1c(O)cc(/C=C/c2cc(O)c3c(c2)C[C@@H]2C(C)(C)[C@H](O)CC[C@@]2(C)O3)cc1O [3dSB, 3-Deoxyschweinfurthin B] the “inhibition of proliferation (percent viability versus control)” value [1] was “sensitive”.

With COc1cc(/C=C/c2cc3c(c(OC)c2)O[C@]2(C)C[C@@H](O)[C@@H](O)C(C)(C)[C@H]2C3)cc(O)c1CC=C(C)C [5′MeSE, 5′-Methylschweinfurthin E] the “inhibition of proliferation (percent viability versus control)” value [2] was “sensitive”, the GI50 [3] was “low nM range” and the chemical stability [4] was “more stable chemically than the free resorcinols”.

With COc1cc(/C=C/c2cc(O)c3c(c2)C[C@@H]2C(C)(C)[C@H](O)CC[C@@]2(C)O3)cc(O)c1CC=C(C)C [5′MeSG, 5′-Methylschweinfurthin G] the “inhibition of proliferation (percent viability versus control)” value [5] was “sensitive”, the “inhibition of proliferation (percent viability versus control)” value [2] was “sensitive” and the GI50 [3] was “low nM range”. The chemical stability [4] was “more stable chemically than the free resorcinols”.

In the case of COc1cc(/C=C/c2cc(O)c(C/C=C(\C)CCC=C(C)C)c(O)c2)cc2c1O[C@]1(C)C[C@@H](O)[C@@H](O)C(C)(C)[C@H]1C2 [SB, Schweinfurthin B], the “inhibition of proliferation (percent viability versus control)” value [2] is reported as “sensitive” and the differential cytotoxicity ([3]; NCI 60-cell line panel) is reported as “significant differential cytotoxicity”.

For C[C@@H](N)[C@H]1CC[C@H](C(=O)Nc2ccncc2)CC1 [Y-27632, reference compound], the “F-actin staining / stress fibers” value [6] was “dramatic loss of F-actin staining”.

For CC[C@@]1(O)C(=O)OCc2c1cc1n(c2=O)Cc2cc3ccccc3nc2-1 [camptothecin, reference compound], the “inhibition of proliferation (percent viability versus control)” value [7] was “sensitive”.

With COc1cccc2c1C(=O)c1c(O)c3c(c(O)c1C2=O)C[C@@](O)(C(=O)CO)C[C@@H]3O[C@H]1C[C@H](N)[C@H](O)[C@H](C)O1 [doxorubicin, reference compound] the “F-actin staining / stress fibers” value [6] was “retained stress fibers”.

In the case of C3 transferase, the “F-actin staining / stress fibers” value [6] is reported as “dramatic loss of F-actin staining”.
